Entries after “also recorded” stand apart in the source; their conditions may differ.

The subject of one data set is Strain px-2. Description: Oxygen uptake rate, strain px-2. Type of data set: cell-based, bacterial strain px-2. The protocol:
(§1) Experiments were conducted to examine the range of compounds degraded by enzymes present in the metabolic pathways of the strains established on meta- and para-xylene, as described in Example 7. […] The compounds listed Table 7 from benzoate through protocatechuate are enzymatic pathway intermediates in the oxidation of aromatic compounds.

In the next data set the test system is Strain mx-2. Description: Oxygen uptake rate, strain mx-2. Type of data set: cell-based, bacterial strain mx-2. As to the method:
as §1

For a further data set, the system named is isolated soil consortia. The experiment in a line: Degradability / utilization as growth substrate by isolated soil consortia. Type of data set: cell-based. The following applies: utilization as carbon source for growth and energy. The source says: (§2) Using a mixed consortium of organisms isolated in liquid culture from soil samples removed from a site saturated with gasoline for a number of years, the model compounds from each of the represented species in furniture exhaust gases were examined for degradability. Degradability actually refers to the ability of the microorganisms to utilize a compound as a carbon source for growth and energy. Different carbon sources are preferred by different organisms, so it was important to determine which model compounds were acceptable for the consortium which was isolated. Following completion of these initial studies, organism subcultures were generated for specific compounds.

Data set [1] concerns mx-2. The experiment in a line: m-Xylene degradation rate of mx-2 strain. Type of data set: cell-based, mx-2 bacterial strain. The source says:
(§3) Using a mixed consortium of organisms isolated in liquid culture from soil samples removed from a site saturated with gasoline for a number of years, the model compounds from each of the represented species in furniture exhaust gases were examined for degradability. Degradability actually refers to the ability of the microorganisms to utilize a compound as a carbon source for growth and energy. […] Following completion of these initial studies, organism subcultures were generated for specific compounds.
(§4) Maximum growth rates for the isolated consortia were determined in shake flask studies containing minimal media and supplemented with the appropriate compound. Concentrations of volatile organic compounds added to the flasks were 400 ppm (mole/mole) for MEK and MIBK, 150 ppm for m-xylene and p-xylene, and 2000 ppm for IBA and methanol.
(§5) The effects of carbon source composition were examined for the mx-2 bacterial strain. mx-2 is one of the strains of microorganism isolated from soil samples exposed to gasoline as described in Example 7.
(§6) In addition to examining the effects of ethanol and methanol, the impact of octanol on microorganism growth was determined. This investigation was necessary since some octanol (stripping fluid) will be delivered to the membrane bioreactor with the VHAPs/VOCs.

The subject of data set [2] is mx-2. Description: Growth rate of mx-2 strain in shake flask. Type of data set: cell-based, mx-2 bacterial strain. To be noted: for effect on the growth rate: mx-2 mixed carbon source study.
Text: as §3, §4, §5, §6

Data set [3] relates to initial gasoline consortium. Description: Enrichment of the initial gasoline consortium in individual flasks. Type of data set: cell-based, organisms isolated from gasoline-saturated soil samples.
Text: as §2

The nature of data set [4]: Partition coefficient of solute between octanol and water. Type of data set: physicochemical. The following applies: 31 °C.
Data set [5] is described as follows: Partition coefficient of solute between stripping fluid (octanol) and air. Type of data set: physicochemical. As to the method:
Before beginning work with the LIQUI-CEL® membrane modules presented in Example 2, partition coefficient experiments were performed to investigate the equilibrium distribution of m-xylene, MEK, and MIBK between phases for stripping fluid/air. Octanol was chosen as the stripping fluid because data from previously conducted studies was readily available for comparison.
(§7) Partition coefficients are defined as a measure of the affinity a solute has for one phase over another at equilibrium. Therefore, they are an integral part of equations related to membrane contactor design and operation. Partition coefficients are expressed as a ratio of concentrations; the general form being (concentration in solvent)/(concentration in air).
For these studies, two forms of the partition coefficient were used. The first was the general form, which indicated the level of driving force for mass transfer (a value greater than 1 indicates sufficient driving force). The second form was defined as 1/(general form), or 1/Pgen, which was used in system operating equations.

A short description of data set [6]: Partition coefficient of m-xylene between natural oils and air. To be noted: 31 °C. Type of data set: physicochemical.
Text: as §7
An additional set of experiments was run to evaluate stripping fluids other than octanol. This was due mainly to the relatively high cost of commercially available octanol. Partition coefficients were determined for m-xylene in several natural oils at 31° C. […] The purchase cost of these oils is roughly one-quarter that of octanol.

The next data set deals with isolated consortia. Description: Growth rate of cultures on o-xylene. Type of data set: cell-based, bacterial cultures isolated from soil samples.
Text: as §2
Pure bacterial cultures (single identifiable organisms) were established on meta- and para-xylene; the other cultures consisted of approximately three different bacterial strains each. Maximum growth rates for the isolated consortia were determined in shake flask studies containing minimal media and supplemented with the appropriate compound. Concentrations of volatile organic compounds added to the flasks were 400 ppm (mole/mole) for MEK and MIBK, 150 ppm for m-xylene and p-xylene, and 2000 ppm for IBA and methanol.

Setting [7] is: mx-2 on m-xylene, + 500 ppm octanol.

For the compound `Cc1cccc(O)c1O` [3-Methylcatechol], the results for the “Oxygen Uptake” value in the data set with Strain px-2 and in the data set with Strain mx-2 were 1.50 μmol/min-mg total protein and 1.17 μmol/min-mg total protein, respectively.

As for `Cc1ccc(O)c(O)c1` [4-Methylcatechol], the “Oxygen Uptake” value in the data set on Strain px-2 was 4.35 μmol/min-mg total protein; in the data set with Strain mx-2, 0.92 μmol/min-mg total protein.

For the compound `CC(C)=O` [Acetone], the Degradability entry with isolated soil consortia is “Yes”.

Turning to `c1ccccc1` [Benzene], the “Oxygen Uptake” value in the data set on Strain px-2 stood at 0.13 μmol/min-mg total protein; in the data set on Strain mx-2 it was 0.27 μmol/min-mg total protein.

Regarding `O=C(O)c1ccccc1` [Benzoate], the “Oxygen Uptake” value in the data set with Strain px-2 was determined as 2.34 μmol/min-mg total protein; in the data set with Strain mx-2, 0.66 μmol/min-mg total protein.

As to `Oc1ccccc1O` [Catechol], the “Oxygen Uptake” value was determined as 5.19 μmol/min-mg total protein in the data set on Strain px-2 and 1.23 μmol/min-mg total protein in the data set with Strain mx-2.

`CCO` [Ethanol]: in the data set with mx-2 [1] (mx-2, in presence of ethanol), the “reduction of the degradation rate of m-xylene” value is “about 30%”. The “Degradation Rate” value in the data set with mx-2 [1] (mx-2 on m-xylene, + 0.2% EtOH) is given as 2.34 * 10^-10 mg/(hr - cell). Further, the “effect on the growth rate” value in the data set on mx-2 [2] is “negligible”. Further, the “Specific Growth Rate” value in the data set with mx-2 [2] (mx-2 on m-xylene, + 0.2% EtOH) was determined as 0.40 h⁻¹. Moreover, the “lowering of the maximum growth rate” value in the data set with mx-2 [2] (mx-2 on m-xylene, in presence of ethanol) amounted to 10%. For the same compound, the Degradability entry in the data set on isolated soil consortia is “Yes”.

Turning to `C=O` [Formaldehyde], in the data set on isolated soil consortia, the Degradability entry is “Yes”.

Consider `CC(C)CO` [Isobutyl alcohol], for which the Degradability entry in the data set with isolated soil consortia is recorded as “Yes”.

With `CCC(C)=O` [MEK, methyl ethyl ketone], the “cultures capable of degrading compound after enrichment” value (“cultures capable of degrading compound” below) in data set [3] was “cultures capable of degrading each compound were developed”. The Degradability result in the data set on isolated soil consortia is “Yes”.

Take `CC(=O)CC(C)C` [MIBK, methyl isobutyl ketone]: in [3], the “cultures capable of degrading compound” value is “cultures capable of degrading each compound were developed”. Further, the “Partition Coef. [oct]/[water]” value in data set [4] is 2.1. Moreover, the results for the “Partition Coef. [oct]/[air]” value in data set [5] (6 °C), in [5] (22 °C) and in data set [5] (31 °C) were “.infin”, 22,045 and 8,721, respectively. Further, in the data set with isolated soil consortia, the Degradability entry is given as “Yes”.

Turning to `CO` [Methanol, methanol], the “Degradation Rate” value in the data set with mx-2 [1] (mx-2 on m-xylene, + 0.2% MeOH) was 3.57 * 10^-10 mg/(hr - cell). Besides, the “cultures capable of degrading compound” value in data set [3] is “cultures capable of degrading each compound were developed”. Moreover, the “effect on the growth rate” value with mx-2 [2] is listed as “negligible; also recorded: no effect”. Further, in the data set on mx-2 [2] (mx-2 on m-xylene, + 0.2% MeOH), the “Specific Growth Rate” value came to 0.45 h⁻¹. In addition, in the data set with isolated soil consortia, the Degradability result is recorded as “Yes”.

For `C=Cc1ccccc1` [Styrene], the Degradability result in the data set on isolated soil consortia was “Yes”. Besides, the “Oxygen Uptake” value in the data set on Strain px-2 came out at 0.47 μmol/min-mg total protein; in the data set with Strain mx-2, 0.55 μmol/min-mg total protein.

Turning to `Cc1ccccc1` [Toluene], the Degradability entry in the data set on isolated soil consortia is “Yes”. The figures for the “Oxygen Uptake” value with Strain px-2 and in the data set on Strain mx-2 were 0.17 μmol/min-mg total protein and 0.18 μmol/min-mg total protein, respectively.

For the compound `CC(=O)OCC(C)C` [isobutyl acetate], the “cultures capable of degrading compound” value in data set [3] is “cultures capable of degrading each compound were developed”.

For the compound `Cc1cccc(C)c1` [m-xylene], the “Partition Coef. [solvent]/[air]” value in [6] (corn oil) was 8,283; in data set [6] (mineral oil), 7,284; in data set [6] (sunflower seed oil), 8,244. Also, the “Partition coefficients in natural oils versus octanol” value in data set [6] (natural oils evaluated) is “comparable to those for octanol”. In the data set with mx-2 [1] (mx-2 (grown on m-xylene, 150 ppm)), the “Degradation Rate” value is 3.60 * 10^-10 mg/(hr - cell). In data set [3], the “cultures capable of degrading compound” value was “cultures capable of degrading each compound were developed”. In data set [4], the “Partition Coef. [oct]/[water]” value is given as 1,021. The entries for the “Partition Coef. [oct]/[air]” value in data set [5] (6 °C), in data set [5] (22 °C) and in data set [5] (31 °C) were 9,865, 7,978 and 7,703, respectively. Further, the “form 2 partition coefficient, Pair/oct (1/general form)” value in data set [5] (air/stripping fluid separation unit) is recorded as 0.00014. Moreover, the “Specific Growth Rate” value with mx-2 [2] (mx-2 (strain grown on m-xylene, 150 ppm)) stood at 0.46 hr^1. For the same compound, in the data set with isolated soil consortia, the Degradability entry is on record as “Yes”. Also, the “Oxygen Uptake” value with Strain px-2 worked out at 0.31 μmol/min-mg total protein; in the data set on Strain mx-2, 0.82 μmol/min-mg total protein.

Turning to `CCCCO` [n-Butyl alcohol], the Degradability result with isolated soil consortia was “Yes”.

Take `Cc1ccccc1C` [o-Xylene]: in the data set with isolated consortia, the “growth rate compared with other compounds” value was “relatively slow compared with that on other compounds”. In addition, the Degradability result in the data set on isolated soil consortia is listed as “Yes”. For the same compound, the “Oxygen Uptake” value in the data set on Strain mx-2 is 0.31 μmol/min-mg total protein.

Turning to `CCCCCCCCO` [octanol], in the data set on mx-2 [1] (setting [7]), the “Degradation Rate” value was 3.60 * 10^-10 mg/(hr - cell). In addition, in the data set with mx-2 [1] (test microorganism strain grown on m-xylene), the “effect on the degradation rate” value is “no effect”. In addition, the “Specific Growth Rate” value was 0.20 h⁻¹ with mx-2 [2] (500 ppm octanol (without "+")) and 0.46 h⁻¹ in the data set with mx-2 [2] (setting [7]). For the same compound, the “effect on the growth rate” value in the data set with mx-2 [2] was “no effect”.

Regarding `Cc1ccc(C)cc1` [p-Xylene], the “cultures capable of degrading compound” value in data set [3] is reported as “cultures capable of degrading each compound were developed”. Moreover, in the data set on isolated soil consortia, the Degradability result is reported as “Yes”. For the same compound, the entries for the “Oxygen Uptake” value with Strain px-2 and in the data set with Strain mx-2 were 0.34 μmol/min-mg total protein and 1.21 μmol/min-mg total protein, respectively.

Values taken from US5954858A, “Bioreactor process for the continuous removal of organic compounds from a vapor phase process stream” (North Carolina State University, priority 1996, dated 1999).
